Measurements as given in patent US20240368173A1, “TRICYCLIC GPR65 MODULATORS” (PATHIOS THERAPEUTICS LIMITED, priority 2021, published 2024).
pIC50: −log10 of the molar value.

Each molecule was assayed against human recombinant GPR65 (Homo sapiens, UniProt Q8IYL9) (assay: Human GPR65 cAMP HTRF antagonist assay). Settings: not given.
Chain of human recombinant GPR65 (Q8IYL9 whole entry): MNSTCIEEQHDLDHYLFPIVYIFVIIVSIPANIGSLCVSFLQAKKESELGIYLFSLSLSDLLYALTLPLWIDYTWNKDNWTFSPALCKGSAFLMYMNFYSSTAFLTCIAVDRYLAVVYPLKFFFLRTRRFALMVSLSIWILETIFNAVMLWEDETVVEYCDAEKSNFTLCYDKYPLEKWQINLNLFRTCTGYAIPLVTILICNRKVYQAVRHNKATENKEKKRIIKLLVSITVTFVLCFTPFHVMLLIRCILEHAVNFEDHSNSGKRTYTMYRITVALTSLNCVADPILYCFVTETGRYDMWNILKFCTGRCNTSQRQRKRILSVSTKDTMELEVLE
Assay type: cell-based
Excerpt: In one preferred embodiment, the compound prevents the increase in cytoplasmic cAMP levels expected following GPR65 activation at acidic pH. This prevention of cAMP accumulation in turn prevents downstream signalling through ICER, as described above. The “Human GPR65 cyclic adenosine monophosphate (cAMP) Homogeneous Time Resolved Fluorescence (HTRF) antagonist assay”, or simply “cAMP assay”, as described in the accompanying examples, can be used to measure the potency of GPR65 modulators, which is expressed as the concentration of compound required to reduce the increase in cAMP concentration upon GPR65 activation by 50% (i.e. an IC50).
Human GPR65 Cyclic Adenosine Monophosphate (cAMP) Homogeneous Time Resolved Fluorescence (HTRF) Antagonist Assay Procedure
IC50 data was obtained by the following procedure:
1321N1 human astrocytoma cells stably expressing human recombinant GPR65 (1321N1-hrGPR65 cells, EuroscreenFast) were cultured according to the vendor's instructions.
Compounds were tested for their ability to antagonise GPR65, through measuring the concentration of cytoplasmic cAMP following treatment of the cells at a pH of 7.2 to activate GPR65 signalling and addition of the compound to be tested. The extent to which the expected rise in cAMP concentration upon GPR65 activation was suppressed by the added compound is indicative of its potency. The assay was carried out according to EuroscreenFast assay Methodology as follows.
On the day of the assay, test compounds were added to 384-well, low volume, white microtiter plates by acoustic dispensing. KRH buffer (5 mM KCl, 1.25 mM MgSO4, 124 mM NaCl, 25 mM HEPES, 13.3 mM Glucose, 1.25 mM KH2PO4 and 1.45 mM CaCl2) was adjusted to pH 6.5, pH 7.6 and pH 8.4 by adding NaOH. 1321N1-hGPR65 cells were rapidly thawed and diluted in KRH, pH 7.6 prior to centrifugation at 300×g for 5 min and resuspension in assay buffer (KRH, pH 7.6, supplemented with 1 mM 3-isobutyl-1-methylxanthine (IBMX) and 200 μM ethylenediaminetetraacetic acid (EDTA)). Cells were added to assay plates at a density of 2,000 cells per well in a volume of 5 μl. Assay plates were briefly centrifuged at 100×g and then incubated at room temperature for 30 min. Cells were stimulated by the addition of 5 μL KRH, pH 6.5, to achieve an assay pH of 7.2, while control wells received 5 μl KRH, pH 8.4 to achieve an assay pH of 7.9. Assay plates were briefly centrifuged at 100×g and then incubated at room temperature for 30 min.
Accumulation of cAMP was detected by cAMP HTRF kit (Cisbio). d2-labeled cAMP and cryptate-labeled anti-cAMP antibody in Lysis and Detection Buffer (Cisbio) were added to assay plates, and the plates were incubated at room temperature for 1 h. HTRF measurements were performed using a Pherastar FSX instrument. Acceptor and donor emission signals were measured at 665 nm and 620 nm, respectively, and HTRF ratios were calculated as signal665 nm/signal620 nm×10^4. Data were normalised to high and low control values and fitted with 4-parameter logistic regression to determine hGPR65 IC50 values for the test compounds, which are shown in Table 1.
For `O=C(Nc1cc(Cl)c(-c2cccnc2)cc1F)N1[C@H]2CC[C@@H]1c1n[nH]c(=O)cc1C2` [Compound 136, (6S,9R)-N-(5-Chloro-2-fluoro-4-(pyridin-3-yl)phenyl)-3-oxo-3,5,6,7,8,9-hexahydro-2H-6,9-epiminocyclohepta[c]pyridazine-10-carboxamide], the pIC50 was > 6.30.
For `COCCOc1ccc(-c2cc(F)c(NC(=O)N3[C@H]4CC[C@@H]3c3n[nH]c(=O)cc3C4)cc2Cl)cn1` [Compound 303, (6S,9R)-N-(5-Chloro-2-fluoro-4-(6-(2-methoxyethoxy)pyridin-3-yl)phenyl)-3-oxo-3,5,6,7,8,9-hexahydro-2H-6,9-epiminocyclohepta[c]pyridazine-10-carboxamide], the pIC50 was > 6.30.
For `O=C(Nc1cc(Cl)c(-c2ccc3nonc3n2)cc1F)N1[C@H]2CC[C@@H]1c1n[nH]c(=O)cc1C2` [Compound 314, (6S,9R)-N-(4-([1,2,5]Oxadiazolo[3,4-b]pyridin-5-yl)-5-chloro-2-fluorophenyl)-3-oxo-3,5,6,7,8,9-hexahydro-2H-6,9-epiminocyclohepta[c]pyridazine-10-carboxamide], the pIC50 was > 6.30.
For `CC(C)Oc1ccc(NC(=O)N2[C@H]3CC[C@@H]2c2ccnc(F)c2C3)cc1Cl` [Compound 70, (5R,8S)-N-(3-Chloro-4-isopropoxyphenyl)-1-fluoro-6,7,8,9-tetrahydro-5H-5,8-epiminocyclohepta[c]pyridine-10-carboxamide], the pIC50 was > 6.30.
`CS(=O)(=O)c1ccc(-c2cc(F)c(NC(=O)N3[C@H]4CC[C@@H]3c3n[nH]c(=O)cc3C4)cc2Cl)cc1F` [Compound 132, (6S,9R)-N-(2-Chloro-3′,5-difluoro-4′-(methylsulfonyl)-[1,1′-biphenyl]-4-yl)-3-oxo-3,5,6,7,8,9-hexahydro-2H-6,9-epiminocyclohepta[c]pyridazine-10-carboxamide] was tested, and the pIC50 was > 6.30.
For `O=C(Nc1cc(Br)c(C(F)(F)F)cc1F)N1C2CCC1c1n[nH]c(=O)cc1C2` (racemic) [Compound 6, (±)-N-(5-Bromo-2-fluoro-4-(trifluoromethyl)phenyl)-3-oxo-3,5,6,7,8,9-hexahydro-2H-6,9-epiminocyclohepta[c]pyridazine-10-carboxamide], the pIC50 was > 6.30.
`O=C(Nc1cc(Cl)c(-c2ncco2)cc1F)N1[C@H]2CC[C@@H]1c1n[nH]c(=O)cc1C2` [Compound 181, (6S,9R)-N-(5-Chloro-2-fluoro-4-(oxazol-2-yl)phenyl)-3-oxo-3,5,6,7,8,9-hexahydro-2H-6,9-epiminocyclohepta[c]pyridazine-10-carboxamide] showed a pIC50 of 5.30 to 6.30.
With `O=C(Nc1cc(Cl)c(COc2cncc(F)c2)cc1F)N1[C@H]2CC[C@@H]1c1n[nH]c(=O)cc1C2` [Compound 316, (6S,9R)-N-(5-Chloro-2-fluoro-4-(((5-fluoropyridin-3-yl)oxy)methyl)phenyl)-3-oxo-3,5,6,7,8,9-hexahydro-2H-6,9-epiminocyclohepta[c]pyridazine-10-carboxamide] the pIC50 was > 6.30.
With `O=C(Nc1cc(Cl)c(-c2ccnc(OCC(F)(F)F)c2)cc1F)N1[C@H]2CC[C@@H]1c1n[nH]c(=O)cc1C2` [Compound 310, (6S,9R)-N-(5-Chloro-2-fluoro-4-(2-(2,2,2-trifluoroethoxy)pyridin-4-yl)phenyl)-3-oxo-3,5,6,7,8,9-hexahydro-2H-6,9-epiminocyclohepta[c]pyridazine-10-carboxamide] the pIC50 was > 6.30.
With `O=C(Nc1cc(Cl)c(-c2ccc3cnoc3c2)cc1F)N1[C@H]2CC[C@@H]1c1n[nH]c(=O)cc1C2` [Compound 196, (6S,9R)-N-(4-(Benzo[d]isoxazol-6-yl)-5-chloro-2-fluorophenyl)-3-oxo-3,5,6,7,8,9-hexahydro-2H-6,9-epiminocyclohepta[c]pyridazine-10-carboxamide] the pIC50 was 5.30 to 6.30.
For `O=C(Nc1cc(-c2cncc(F)c2)c(C(F)(F)F)cc1F)N1[C@H]2CC[C@@H]1c1ccnc(F)c1C2` [Compound 256, (5R,8S)-1-fluoro-N-(2-fluoro-5-(5-fluoropyridin-3-yl)-4-(trifluoromethyl)phenyl)-6,7,8,9-tetrahydro-5H-5,8-epiminocyclohepta[c]pyridine-10-carboxamide], the pIC50 was > 6.30.
`O=C(Nc1ccc2nsnc2c1)N1[C@H]2CC[C@@H]1c1n[nH]c(=O)cc1C2` [Compound 186, (6S,9R)—N-(benzo[c][1,2,5]thiadiazol-5-yl)-3-oxo-3,5,6,7,8,9-hexahydro-2H-6,9-epiminocyclohepta[c]pyridazine-10-carboxamide] was tested, and the pIC50 was 5.30 to 6.30.
`O=C(Nc1cc(Cl)c(I)cc1F)N1C2CCC1c1n[nH]c(=O)cc1C2` (racemic) [Compound 74, (±)-N-(5-Chloro-2-fluoro-4-iodophenyl)-3-oxo-3,5,6,7,8,9-hexahydro-2H-6,9-epiminocyclohepta[c]pyridazine-10-carboxamide] was tested, and the pIC50 was > 6.30.
With `O=C(Nc1cc(Cl)c(-c2cnc3nonc3c2)cc1F)N1[C@H]2CC[C@@H]1c1c[nH]c(=O)cc1C2` [Compound 189, (6S,9R)-N-(4-([1,2,5]oxadiazolo[3,4-b]pyridin-6-yl)-5-chloro-2-fluorophenyl)-3-oxo-3,5,6,7,8,9-hexahydro-2H-6,9-epiminocyclohepta[c]pyridine-10-carboxamide] the pIC50 was > 6.30.
With `Cn1nnc2ccc(-c3cc(F)c(NC(=O)N4[C@H]5CC[C@@H]4c4n[nH]c(=O)cc4C5)cc3Cl)cc21` [Compound 141, (6S,9R)-N-(5-Chloro-2-fluoro-4-(1-methyl-1H-benzo[d][1,2,3]triazol-6-yl)phenyl)-3-oxo-3,5,6,7,8,9-hexahydro-2H-6,9-epiminocyclohepta[c]pyridazine-10-carboxamide] the pIC50 was > 6.30.
For `O=C(Nc1cc(Cl)c(-c2nnc(C(F)(F)F)s2)cc1F)N1[C@H]2CC[C@@H]1c1ccnc(F)c1C2` [Compound 65, (5R,8S)-N-(5-Chloro-2-fluoro-4-(5-(trifluoromethyl)-1,3,4-thiadiazol-2-yl)phenyl)-1-fluoro-6,7,8,9-tetrahydro-5H-5,8-epiminocyclohepta[c]pyridine-10-carboxamide], the pIC50 was > 6.30.
`O=C(Nc1cc(F)c(-c2ccc(C(F)(F)F)nc2)cc1F)N1[C@H]2CC[C@@H]1c1ccnc(F)c1C2` [Compound 223, (5R,8S)-N-(2,5-Difluoro-4-(6-(trifluoromethyl)pyridin-3-yl)phenyl)-1-fluoro-6,7,8,9-tetrahydro-5H-5,8-epiminocyclohepta[c]pyridine-10-carboxamide] was tested, and the pIC50 was > 6.30.
With `O=C(Nc1cc(Cl)c(-c2ccc(OCC(F)F)nc2)cc1F)N1[C@H]2CC[C@@H]1c1c[nH]c(=O)cc1C2` [Compound 322, (6S,9R)-N-(5-Chloro-4-(6-(2,2-difluoroethoxy)pyridin-3-yl)-2-fluorophenyl)-3-oxo-3,5,6,7,8,9-hexahydro-2H-6,9-epiminocyclohepta[c]pyridine-10-carboxamide] the pIC50 was > 6.30.
`Cn1ncc2c(-c3cc(F)c(NC(=O)N4[C@H]5CC[C@@H]4c4n[nH]c(=O)cc4C5)cc3Cl)cccc21` [Compound 120, (6S,9R)-N-(5-Chloro-2-fluoro-4-(1-methyl-1H-indazol-4-yl)phenyl)-3-oxo-3,5,6,7,8,9-hexahydro-2H-6,9-epiminocyclohepta[c]pyridazine-10-carboxamide] was tested, and the pIC50 was > 6.30.

Same assay, conditions: 1321N1-hrGPR65 cells, cAMP HTRF, assay pH 7.2; read-out: hGPR65 IC50 (Activity of selected compounds according to the invention)
With `CNCCOc1ccc(-c2cc(F)c(NC(=O)N3[C@H]4CC[C@@H]3c3ccnc(F)c3C4)cc2Cl)cn1` [Compound 300, (5R,8S)—N-(5-Chloro-2-fluoro-4-(6-(2-(methylamino)ethoxy)pyridin-3-yl)phenyl)-1-fluoro-6,7,8,9-tetrahydro-5H-5,8-epiminocyclohepta[c]pyridine-10-carboxamide] the pIC50 was 5.30 to 6.30.
